Values quoted from earlier work as cited in patent US9968621B2, “Parenteral compositions of celecoxib” (Dr. Reddy's Laboratories Ltd., priority 2014, dated 2018).

Settings: after an oral dose

## Cc1ccc(-c2cc(C(F)(F)F)nn2-c2ccc(S(N)(=O)=O)cc2)cc1 [Celecoxib, 4-[5-(4-methylphenyl)-3-(trifluoromethyl)-1H-pyrazol-1-yl] benzenesulfonamide]
  Time of peak plasma levels: approximately 3 hrs
